In patent US20250270165A1, “COMPOSITIONS FOR AND METHODS OF MODULATING RNA STABILITY” (Duke University, priority 2022, published 2025):
Several values for one entry are separate records, joined by “and”; a condition that tells them apart may be missing. Equal entries are not always repeated. Entries after “also recorded” stand apart in the source; their conditions may differ. Where two headings read alike, the source gives them in different places. Blank lines part the entries; values can stand above or below the compound they belong to.

Columns and labels:
MALAT1 triple helix [1] = assay: RiboGreen indicator displacement assay (IDA); type: binding, human
Experimental: Indicator Displacement Assay (DIA).
The protocol was adapted from a previously reported procedure. (Donlic A, et al. (2020) Nucleic Acids Res. 48(14):7653-7664). A serial dilution of the MALAT1 triple helix RNA was performed in HEPES buffer (20 mM HEPES-KOH, 52.6 mM KCl. 0.1 mM MgCl2, pH=7.4) in a 96 well plate in triplicate. […] of each dilution were transferred to a 384 well plate followed by […] of a 500 nM solution of RiboGreen dye in the same buffer (Invitrogen™). The plates were excited at 487 nm (8 nm slit) and emission was recorded at 530 nm (8 nm slit, focal height 11.3 mm) using a CLARIOstar plate reader (BMG labtech). The affinity of the dye for the RNA construct was determined by fitting the raw fluorescence in GraphPad Prism version 8.3.1 for Macintosh (GraphPad Software, La Jolla California USA, (www.graphpad.com)) by fitting to the Log[Agonist]vs. response-variable slope model that using Equation (1) below.
where Y is normalized % change in fluorescence intensity, X is RNA concentration, Bottom is lowest fluorescence % change and Top is highest fluorescence % change. Affinity of the dye for the RNA construct was used as the ideal RNA concentration (174 nM) for small molecule titrations.
A serial dilution of small molecule (0, 0.5 μM, […], 2.5 μM, […], 7.5 μM, 10.0 μM, 12.5 μM, 25 μM, 50 μM, 75 μM, 100 μM, 125 µM, 150 µM, 250 μM, 500 µM) was performed in HEPES buffer (20 mM HEPES-KOH, 52.6 mM KCl, 0.1 mM MgCl2, pH=7.4) in a 96 well plate in triplicate. Then, 8 μL of each dilution were transferred to a 384 well plate, followed by 8 μL of a 174 nM solution of MALAT1 RNA and 0.5 mM of RiboGreen™ (Invitrogen™). The RNA was previously annealed by heating to 95° C. for 5 minutes and cooling to 0° C. on ice for 30 minutes. The 384 well plates were shaken for 5 minutes, centrifuged at 4000 rpm for 1 minute, and incubated in the dark for 20 minutes. The plates were excited at 487 nm (8 nm slit) and emission was read at 525 nm (8 nm slit, focal height […]) using a CLARIOstar plate reader (BMG Labtech). Percent fluorescence indicator displacement (% FID) was calculated by subtracting and, subsequently, dividing by the blank wells with RNA-dye complex and no small molecule as shown in Equation (2).
Where F0 is the fluorescence of the blank well with RNA+dye and no small molecule and F is the fluorescence of the well with all three components (RNA+dye+small molecule).
Each technical triplicate was averaged, and the resulting FID values were averaged between three independent experiments. The binding curve and Log(CD50) value was obtained by using a non-linear fit curve (Log[Agonist]vs. response) with variable slope at four parameters (GraphPad Prism Software version for Macintosh 8.3.1, La Jolla, California, USA (www.graphpadprism.com)) as shown in Equation 1. Reported values are averages of three independent experiments standard deviation.

MALAT1 triple helix [2] = assay: Differential scanning fluorimetry (DSF), triplex thermal stability; type: binding, human
Experimental: Differential Scanning Fluorimetry. Differential scanning fluorimetry experiments were performed as previously reported. (Donlic A, et al. (2020) Nucleic Acids Res. 48(14):7653-7664). All experiments were performed in white 96 well plates in a LightCycler® 96 (Roche). In a typical experiment, 4 μM of RNA was annealed in the same buffer used for indicator displacement assays (20 mM HEPES-KOH, 52.6 mM KCl, 0.1 mM MgCl2, pH=7.4) by heating at 95° C. for 3 minutes, snap-cooling on ice for 10 minutes, and leaving the solution at room temperature for 1 hr. Then, 42 μL of this solution was aliquoted to wells and 5 μM of ligand was added (2.5 μL of water, 2.0 μL of DMSO, 0.5 μL of 500 μM small molecule stock). The mixture was left to incubate at room temperature for 5 minutes, after which 3 μL of a 20 µM Quant-iT™ RiboGreen™ (ThermoFisher Scientific) dye stock solution in appropriate buffer was added to each well. The 96 well plate was then sealed with an optically clear foil and centrifuged for 1 minute at 4000 rpm prior to being placed in the instrument. The light cycler program was created by selecting the melting curve method; fluorescence intensity was monitored using the SYBR Green I/HRM dye filter combination (465-510 nm) from 37-98° C. at a ramp rate of 0.01° C./second with 150 acquisitions per ° C. Melting profiles were obtained by Tm analysis in the LightCycler® 96 software (SW 1.1).

MALAT1 triple helix [3] = assay: RNase A enzymatic degradation assay; type: biochemical, human; conditions: for stabilizing or destabilizing compound as listed in the description: listing in an aspect, degradation in an enzymatic assay versus control
Experimental: RNase A Enzymatic Degradation Assay.
The procedure was adapted from a published protocol for exonucleolytic enzymatic degradation assay. (Donlic A, et al. (2020) Nucleic Acids Res. 48(14):7653-7664). The MALAT1 destabilizing small molecules published by Le Grice (Abulwerdi F A, et al. (2019) ACS Chem Biol. 14(2):223-235) and co-workers SM5 and SM16 were purchased from ChemBridge. For a typical 70 μL reaction, […] of MALAT1 triple helix RNA was annealed in the same buffer used for IDA and DSF experiments (20 mM HEPES-KOH, 52 mM KCl, 0.1 mM MgCl2, pH=7.4) by heating at 95° C. for 3 minutes, snap-cooling on ice for 10 minutes, and leaving the solution at room temperature for 1 hr.
RNase A enzyme (ThermoFisher) was diluted to 1.46 nM and incubated with 1 M NaCl for 30-35 minutes to achieve ssRNA selectivity as reported. (Struhl K, et al. (1989) Current Protocols in Molecular Biology. 8(1):3.13.1-3.13.3). Next, the RNA was mixed with […] of a CC-rich DNA duplex, 0.2 mM of small molecule/DMSO and incubated at room temperature for 20 minutes. Following the incubation, […] of RNase A was added, and the reaction was incubated at 37° C. for 1 hour in a thermal cycler with a heated lid (Eppendorf). 4 μL timepoint aliquots were taken at 0, 5, 10, 30, and 60 minutes, 4 μL of 2×RNA loading dye was added to each aliquot (ThermoFischer Scientific), and samples were stored at −80° C. prior to gel analysis. Reactions were analyzed on pre-cast 15% PAGE-Urea gels (Invitrogen) in 1×TBE buffer. Aliquots were thawed from −80° C. storage and heated to 95° C. for 15 minutes prior to gel loading and […] were loaded in each well. Gels were run for 45 minutes at 180 V, stained with Diamond™ Nucleic Acid dye (Promega), and visualized on an iBright 500 (ThermoFisher). DMSO controls were ran with every set of 4 small molecules to ensure consistency of enzyme activity and RNA integrity. Gel band intensity of the MALAT1 triple helix and DNA loading control were quantified using ImageJ software. (Rueden C T, et al. (2017) BMC Bioinformatics. 18(1):529).
To quantify time-dependent endonucleolytic degradation for each sample, the intensity was normalized using Equation (3), and fold-difference was calculated as listed in Equation (4) as previously reported. (Donlic A, et al. (2020) Nucleic Acids Res. 48(14):7653-7664).
where y is fold-difference of the exonucleolytic degradation for the specific sample, with normalized areas for its specific time point x and time point 0 calculated as described in Equation (3). Percent RNA degraded was calculated for every time point using Equation (5).
% RNA degraded=(Normalized area (t0)−Normalized area (tx))*100 (Equation 5)
Experimental results shown in FIG. 6C are plotted as three independent replicates and standard deviation between replicates as error bars. Relative fold change between treated condition and DMSO was calculated from Equation (6).

LNCaP cells = assay: MTT assay in LNCaP cells; type: cell-based, human; conditions: for IC50: Homo sapiens
From the text: The MTT reagent (3-(4,5-dimethylthiazol-2-yl)-2,5-diphenyl-2H-tetrazolium bromide) is a mono-tetrazolium salt that consists of a positively charged quaternary tetrazole ring core containing four nitrogen atoms surrounded by three aromatic rings including two phenyl moieties and one thiazolyl ring. Reduction of MTT results in disruption of the core tetrazole ring and the formation of a violet-blue water-insoluble molecule called formazan. The MTT reagent can pass through the cell membrane as well as the mitochondrial inner membrane of viable cells presumably due to its positive charge as well as its lipophilic structure and is reduced to formazan by metabolically active cells. The chromogenic nature of this redox chemical reaction provides a colorimetric-based measurement of intracellular formazan production based on which the MTT assay was developed. Consequently, the assay has extensive utility as a cell metabolic activity assay.
In the first set of […] experiments, four (4) members of the small molecule library were examined in a MTT assay. […] The IC50 values and trends were similar to the apparent small molecule affinities for MALAT-1, supporting a MALAT-1 related mechanism for the toxicity. […] Ongoing cytotoxicity studies using other DMZ small molecule analogs (as well as DMZ-5, DMZ-P13, and DMZ-P17) continue to illuminate mechanism of action regarding toxicity to cancer cells.

[4] = 5-minute time point, relative to DMSO control
[5] = 48 hours, read-out: IC50 at 48 hours

Compound: N=C(NCCc1cccnc1)c1cccc(/N=N/Nc2cccc(C(=N)NCCc3cccnc3)c2)c1 [DMZ-M3]
affinity for the MALAT1 triple helix (IDA), in words (MALAT1 triple helix [1]): moderate affinity | effect on MALAT1 triplex thermal stability (DSF), in words (MALAT1 triple helix [2]): negligible thermal stabilization

Compound: CN1CCN(CCNC(=N)c2cccc(/N=N/Nc3cccc(C(=N)NCCN4CCN(C)CC4)c3)c2)CC1 [DMZ-M10]
IC50 relative to other tested library members, in words (LNCaP cells): higher IC50

Compound: CN(/N=N/c1ccc(C(=N)NCCC2CCN(Cc3ccccc3)CC2)nc1)c1ccc(C(=N)NCCC2CCN(CC3C=CC=CC3)CC2)nc1 (stereo not shown) [DMZ-NMe-mPy-P1]
stabilizing or destabilizing compound as listed in the description (MALAT1 triple helix [3]): destabilizing

Compound: N=C(NCc1ccc(Cl)cc1)c1ccccc1/N=N/Nc1ccccc1C(=N)NCc1ccc(Cl)cc1 [DMZ-O5]
stabilizer or destabilizer of MALAT1 triplex (RNase A degradation) (MALAT1 triple helix [3]; [4]): much stronger destabilizing effect than DMZ-P5

Compound: N=C(NCc1ccccc1Cl)c1ccccc1/N=N/Nc1ccccc1C(=N)NCc1ccccc1Cl [DMZ-O6]
stabilizing or destabilizing compound as listed in the description (MALAT1 triple helix [3]): destabilizing; also recorded: stabilizing

Compound: CCN(CCCCNC(=N)c1ccc(N/N=N/c2ccc(C(=N)NCCCN(CC)Cc3ccccc3)cc2)cc1)Cc1ccccc1 [DMZ-P14]
stabilizing or destabilizing compound as listed in the description (MALAT1 triple helix [3]): stabilizing; also recorded: destabilizing

Second part, led by results:

affinity for the MALAT1 triple helix (IDA), in words (MALAT1 triple helix [1]): mediocre affinity | increase of the amount of MALAT1 degraded at 5 minutes (MALAT1 triple helix [3]; 5-minute time point): 2 fold and > 2 fold | stabilizer or destabilizer of MALAT1 triplex (RNase A degradation) (MALAT1 triple helix [3]; [4]): destabilizers
Compound: N=C(NCc1ccccc1)c1cccc(/N=N/Nc2cccc(C(=N)NCc3ccccc3)c2)c1 [DMZ-M4]
CD50 (50% competitive displacement dose) (MALAT1 triple helix [1]; 16-point titration, 20 mM HEPES-KOH, 52 mM KCl, 0.1 mM MgCl2, pH 7.4): 36.6 µM | effect on MALAT1 triplex thermal stability (DSF), in words (MALAT1 triple helix [2]): increases in thermal stability; also recorded: mediocre affinity and thermal stabilization

IC50 (LNCaP cells; [5]): 2900 nM
Compound: N=C(NCc1ccc(-c2ccccc2)cc1)c1cccc(/N=N/Nc2cccc(C(=N)NCc3ccc(-c4ccccc4)cc3)c2)c1 [DMZ-M7]

affinity for the MALAT1 triple helix (IDA), in words (MALAT1 triple helix [1]): moderate affinity
Compound: N=C(NCc1ccco1)c1cccc(/N=N/Nc2cccc(C(=N)NCc3ccco3)c2)c1 [DMZ-M15]
effect on MALAT1 triplex thermal stability (DSF), in words (MALAT1 triple helix [2]): negligible thermal stabilization | stabilizing or destabilizing compound as listed in the description (MALAT1 triple helix [3]): stabilizing; also recorded: destabilizing

stabilizing or destabilizing compound as listed in the description (MALAT1 triple helix [3]): destabilizing
Compound: CN(C)c1ccc(CN2CCC(CCNC(=N)c3ccc(/N=N/N(C)c4ccc(C(=N)NCCC5CCN(Cc6ccc(N(C)C)cc6)CC5)cc4)cc3)CC2)cc1 [DMZ-NMe-P38]

affinity for the MALAT1 triple helix (IDA), in words (MALAT1 triple helix [1]): no affinity
Compound: N=C(NCc1ccccc1)c1ccccc1/N=N/Nc1ccccc1C(=N)NCc1ccccc1 [DMZ-O4]

IC50 relative to other tested library members, in words (LNCaP cells): much higher IC50 | stabilizer or destabilizer of MALAT1 triplex (RNase A degradation) (MALAT1 triple helix [3]; [4]): destabilizers
Compound: N=C(N)c1ccc(/N=N/Nc2ccc(C(=N)N)cc2)cc1 [DMZ-P0, diminazene, reference compound]
effect on MALAT1 triplex thermal stability (DSF), in words (MALAT1 triple helix [2]): increases in thermal stability

stabilizer or destabilizer of MALAT1 triplex (RNase A degradation) (MALAT1 triple helix [3]; [4]): destabilizers
Compound: CN(C)CCCNC(=N)c1ccc(/N=N/Nc2ccc(C(=N)NCCCN(C)C)cc2)cc1 [DMZ-P1]
effect on MALAT1 triplex thermal stability (DSF), in words (MALAT1 triple helix [2]): increases in thermal stability | effect on Tm1 (ΔTm1) (MALAT1 triple helix [2]; equimolar ratio of RNA:small molecule, compared to DMSO vehicle): approximately 6.1 °C | graded stabilizer/destabilizer class (change in degradation) (MALAT1 triple helix [3]; [4]): weak destabilizer (weak destabilizer (<50% increase in degradation))

fold higher affinity with the para scaffold versus the ortho scaffold (DMZ-O5) (MALAT1 triple helix [1]; subunit R-5): 13 fold
Compound: N=C(NCc1ccc(Cl)cc1)c1ccc(/N=N/Nc2ccc(C(=N)NCc3ccc(Cl)cc3)cc2)cc1 [DMZ-P5]

IC50 (LNCaP cells; [5]): 4100 nM | IC50 (LNCaP cells; 72 hours, read-out: IC50 at 72 hours): 2700 nM
Compound: N=C(NCCC1CCN(Cc2ccccc2)CC1)c1ccc(/N=N/Nc2ccc(C(=N)NCCC3CCN(Cc4ccccc4)CC3)cc2)cc1 [DMZ-P13]
